Measurements published in patent US7776862B2, “Pyridyl and phenyl substituted piperazine-piperidines with CXCR3 antagonist activity” (Schering Corporation, priority 2005, dated 2010).

Each compound was assayed against T1, human CXCR3 (N-delta 4) (Homo sapiens, UniProt P49682) (assay: Human CXCR3 (N-delta 4) scintillation proximity assay (SPA), [125I] IP-10 binding). Conditions: IC50 rating; Ba/F3-hCXCR3 (N-delta 4) membranes, 25 pM [125I] IP-10.
T1 construct: CD8 leader; Flag tag; expressed in transfected cells; membranes used
T1 sequence (P49682 5-368 limits assumed): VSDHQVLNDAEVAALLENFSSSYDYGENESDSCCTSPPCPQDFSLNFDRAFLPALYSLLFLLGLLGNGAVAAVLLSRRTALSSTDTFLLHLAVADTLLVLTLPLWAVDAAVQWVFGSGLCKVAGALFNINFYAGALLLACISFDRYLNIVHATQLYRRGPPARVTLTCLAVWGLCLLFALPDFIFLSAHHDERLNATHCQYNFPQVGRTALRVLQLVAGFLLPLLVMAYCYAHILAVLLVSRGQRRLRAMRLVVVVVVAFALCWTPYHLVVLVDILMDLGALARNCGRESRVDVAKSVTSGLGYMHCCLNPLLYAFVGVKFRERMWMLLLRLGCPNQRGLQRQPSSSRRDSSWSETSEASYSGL
From the text: The inventive compounds can readily be evaluated to determine activity at the CXCR3 receptors by known methods, such as, for example, development of a human CXCR3 (N-delta 4) Binding Assay.
Cloning and expression of human CXCR3 (N-delta 4):
The DNA encoding human CXCR3 was cloned by PCR using human genomic DNA (Promega, Madison, Wis.) as a template. The PCR primers were designed based on the published sequence of human orphan receptor GPR9 (1) with incorporated restriction sites, a Kozak consensus sequence, CD8 leader and Flag tag. The PCR product was subcloned into the mammalian expression vector pME18Sneo, a derivative of the SR-alpha expression vector (designated as pME18Sneo-hCXCR3 (N-delta 4).
IL-3-dependent mouse pro-B cells Ba/F3 were transfected by electroporation in 0.4 ml Dulbecco's PBS containing 4×10^6 cells with 20 μg of pME18Sneo-hCXCR3 (N-delta 4) plasmid DNA. Cells were pulsed at 400 Volts, 100 OHMs, 960 μFd. The transfected cells were under selection with 1 mg/ml G418 (Life Technologies, Gaithersburg, Md.). […] IP-10 (NEN Life Science Products, Boston, Mass.).
Preparation of Ba/F3-hCXCR3 (N-delta 4) membranes:
Ba/F3 cells expressing human CXCR3 (N-delta 4) were pelleted and resuspended in the lysis buffer containing 10 mM HEPES, pH 7.5 and Complete® protease inhibitors (1 tablet per 100 ml) (Boehringer Mannheim, Indianapolis, Ind.) at a cell density of 20×10^6 cells per ml. […] Large cellular debris was removed by centrifugation at 1,000×g. Cell membrane in the supernatant was sedimented at 100,000×g. The membrane was resuspended in the lysis buffer supplemented with 10% sucrose and stored at −80° C. Total protein concentration of the membrane was determined by BCA method from Pierce (Rockford, Ill.).
Human CXCR3 (N-delta 4) scintillation proximity assay (SPA):
The beads were spun down, washed once, resuspended in the binding buffer and transferred to a 96-well Isoplate (Wallac, Gaithersburg, Md.). […] IP-10 with tested compounds in a series of titration were added to start the reaction.

SMILES	IC50
O=C(NCc1cccc(F)c1)c1cnc(N2CCN(C3CCN(Cc4ccc(F)cc4)CC3)CC2)c(Cl)c1 [compound 29]	> 0.1 µM
COc1ccc(CN2CCC(N3CCN(c4ncc(C(=O)NCc5cccc(F)c5)cc4Cl)CC3)CC2)cc1 [compound 30]	> 0.1 µM
O=C(NCc1ccc(C(F)(F)F)cc1)c1cnc(N2CCN(C3CCN(Cc4ccc(Br)cc4)CC3)CC2)c(Cl)c1 [compound 31]	> 0.1 µM
CC(c1ccc(C#N)cc1)N1CCC(N2CCN(c3ncc(C(=O)NCc4ccc(Cl)c(Cl)c4)cc3Cl)CC2)CC1 (stereo not shown) [compound 32]	> 0.1 µM
O=C(NCc1ccc(F)c(Cl)c1)c1cnc(N2CCN(C3CCN(Cc4ccc(Br)cc4F)CC3)CC2)c(Cl)c1 [compound 33]	> 0.1 µM
O=C(NCc1ccc(F)cc1)c1cnc(N2CCN(C3CCN(Cc4ccc(F)cc4F)CC3)CC2)c(Cl)c1 [compound 34]	> 0.1 µM
O=C(NCCOc1ccccc1)c1cnc(N2CCN(C3CCN(Cc4ccc(F)c(F)c4)CC3)CC2)c(Cl)c1 [compound 35]	> 0.1 µM
O=C(NCc1ccc(Br)cc1)c1cnc(N2CCN(C3CCN(Cc4ccc(Br)cc4F)CC3)CC2)c(Cl)c1 [compound 36]	> 0.1 µM
O=C(NC1CCCC1)c1cnc(N2CCN(C3CCN(Cc4ccc(Br)cc4)CC3)CC2)c(Cl)c1 [compound 37]	> 0.1 µM
O=C(NCCOc1ccccc1)c1cnc(N2CCN(C3CCN(Cc4ccc(Cl)cc4Cl)CC3)CC2)c(Cl)c1 [compound 38]	> 0.1 µM
O=C(NCc1ccccc1)c1cnc(N2CCN(C3CCN(Cc4ccc(Br)cc4)CC3)CC2)c(Cl)c1 [compound 39]	> 0.1 µM
N#Cc1ccc(CN2CCC(N3CCN(c4ncc(C(=O)NCc5cc(Cl)cc(Cl)c5)cc4Cl)CC3)CC2)cc1 [compound 40]	> 0.1 µM
O=C(NCc1ccc(F)cc1F)c1cnc(N2CCN(C3CCN(Cc4ccc(F)cc4F)CC3)CC2)c(Cl)c1 [compound 41]	> 0.1 µM
COc1ccc(CN2CCC(N3CCN(c4ncc(C(=O)NCc5ccc(C(F)(F)F)cc5)cc4Cl)CC3)CC2)cc1 [compound 42]	> 0.1 µM
O=C(NCc1cccc(Cl)c1)c1cnc(N2CCN(C3CCN(Cc4ccc(Br)cc4)CC3)CC2)c(Cl)c1 [compound 43]	> 0.1 µM
COc1ccc(CN2CCC(N3CCN(c4ncc(C(=O)NCc5cc(Cl)cc(Cl)c5)cc4Cl)CC3)CC2)cc1 [compound 44]	> 0.1 µM
CC(c1ccc(Cl)cc1)N1CCC(N2CCN(c3ncc(C(=O)NCc4ccc(Cl)c(Cl)c4)cc3Cl)CC2)CC1 (stereo not shown) [compound 45]	> 0.1 µM
CC(c1ccc(Cl)cc1)N1CCC(N2CCN(c3ncc(C(=O)NCc4ccc(F)c(F)c4)cc3Cl)CC2)CC1 (stereo not shown) [compound 46]	> 0.1 µM
N#Cc1ccc(CN2CCC(N3CCN(c4ncc(C(=O)NCc5cccc(Cl)c5)cc4Cl)CC3)CC2)cc1 [compound 47]	> 0.1 µM
O=C(NCc1ccc(Cl)cc1)c1cnc(N2CCN(C3CCN(Cc4ccc(Br)cc4F)CC3)CC2)c(Cl)c1 [compound 48]	> 0.1 µM
O=C(NCCOc1ccccc1)c1cnc(N2CCN(C3CCN(Cc4ccc(Cl)c(Cl)c4)CC3)CC2)c(Cl)c1 [compound 49]	> 0.1 µM
COc1ccc(CN2CCC(N3CCN(c4ncc(C(=O)NCc5ccc(F)cc5)cc4Cl)CC3)CC2)cc1 [compound 50]	> 0.1 µM
N#Cc1ccc(C(=O)N2CCC(N3CCN(c4ncc(C(=O)NCc5ccc(F)c(F)c5)cc4Cl)CC3)CC2)cc1 [compound 51]	> 0.1 µM
O=C(NCc1cc(Cl)cc(Cl)c1)c1cnc(N2CCN(C3CCN(Cc4ccc(Cl)cc4)CC3)CC2)c(Cl)c1 [compound 52]	> 0.1 µM
O=C(NCc1ccccc1)c1cnc(N2CCN(C3CCN(Cc4ccc(F)c(F)c4)CC3)CC2)c(Cl)c1 [compound 53]	> 0.1 µM
COc1ccc(CN2CCC(N3CCN(c4ncc(C(=O)NCc5cccc(Cl)c5)cc4Cl)CC3)CC2)cc1 [compound 54]	> 0.1 µM
O=C(NCc1ccc(F)cc1)c1cnc(N2CCN(C3CCN(Cc4ccc(F)cc4)CC3)CC2)c(Cl)c1 [compound 55]	> 0.1 µM
COc1ccc(CN2CCC(N3CCN(c4ncc(C(=O)NCc5ccc(F)cc5F)cc4Cl)CC3)CC2)cc1 [compound 56]	> 0.1 µM

SMILES	IC50
O=C(NCc1cccc(Cl)c1)c1cnc(N2CCN(C3CCN(Cc4ccc(F)cc4)CC3)CC2)c(Cl)c1 [compound 57]	> 0.1 µM
O=C(NCc1ccc(F)cc1F)c1cnc(N2CCN(C3CCN(Cc4ccc(F)cc4)CC3)CC2)c(Cl)c1 [compound 58]	> 0.1 µM
O=C(NCc1ccc(Cl)cc1Cl)c1cnc(N2CCN(C3CCN(Cc4ccc(F)cc4F)CC3)CC2)c(Cl)c1 [compound 59]	> 0.1 µM
O=C(NCCOc1ccccc1)c1cnc(N2CCN(C3CCN(Cc4ccc(F)cc4)CC3)CC2)c(Cl)c1 [compound 60]	> 0.1 µM
N#Cc1ccc(CN2CCC(N3CCN(c4ncc(C(=O)NCc5cccc(F)c5)cc4Cl)CC3)CC2)cc1 [compound 61]	> 0.1 µM
O=C(NCc1ccc(F)c(F)c1)c1cnc(N2CCN(C3CCN(Cc4ccc(Br)cc4F)CC3)CC2)c(Cl)c1 [compound 62]	> 0.1 µM
COc1ccc(CN2CCC(N3CCN(c4ncc(C(=O)NCc5ccc(Cl)cc5Cl)cc4Cl)CC3)CC2)cc1 [compound 63]	> 0.1 µM
N#Cc1ccc(C(=O)N2CCC(N3CCN(c4ncc(C(=O)NCc5ccc(Cl)c(Cl)c5)cc4Cl)CC3)CC2)cc1 [compound 64]	> 0.1 µM
O=C(NCc1ccc(Cl)c(Cl)c1)c1cnc(N2CCN(C3CCN(Cc4ccc(Br)cc4F)CC3)CC2)c(Cl)c1 [compound 65]	> 0.1 µM
O=C(NCc1ccc(C(F)(F)F)cc1)c1cnc(N2CCN(C3CCN(Cc4ccc(F)cc4)CC3)CC2)c(Cl)c1 [compound 66]	> 0.1 µM
O=C(NCc1ccc(Br)cc1)c1cnc(N2CCN(C3CCN(Cc4ccc(F)cc4F)CC3)CC2)c(Cl)c1 [compound 67]	> 0.1 µM
N#Cc1ccc(C(=O)N2CCC(N3CCN(c4ncc(C(=O)NCc5ccc(Br)cc5)cc4Cl)CC3)CC2)cc1 [compound 68]	> 0.1 µM
N#Cc1ccc(CN2CCC(N3CCN(c4ncc(C(=O)NCc5ccc(Cl)cc5Cl)cc4Cl)CC3)CC2)cc1 [compound 69]	> 0.1 µM
N#Cc1ccc(C(=O)N2CCC(N3CCN(c4ncc(C(=O)NCc5ccc(C(F)(F)F)cc5)cc4Br)CC3)CC2)cc1 [compound 70]	> 0.1 µM
O=C(NCc1ccccc1)c1cnc(N2CCN(C3CCN(Cc4ccc(Cl)c(F)c4)CC3)CC2)c(Cl)c1 [compound 71]	> 0.1 µM
O=C(NCc1ccccc1)c1cnc(N2CCN(C3CCN(Cc4ccc(Cl)cc4)CC3)CC2)c(Cl)c1 [compound 72]	> 0.1 µM
O=C(NCc1ccc(C(F)(F)F)cc1)c1cnc(N2CCN(C3CCN(Cc4ccc(Cl)c(F)c4)CC3)CC2)c(Cl)c1 [compound 73]	> 0.1 µM
CC(c1ccc([N+](=O)[O-])cc1)N1CCC(N2CCN(c3ncc(C(=O)NCc4ccc(Cl)c(Cl)c4)cc3Cl)CC2)CC1 (stereo not shown) [compound 74]	> 0.1 µM
O=C(NCc1ccccc1)c1cnc(N2CCN(C3CCN(Cc4ccc([N+](=O)[O-])cc4)CC3)CC2)c(Cl)c1 [compound 75]	> 0.1 µM
CC(c1ccc([N+](=O)[O-])cc1)N1CCC(N2CCN(c3ncc(C(=O)NCc4ccc(F)c(F)c4)cc3Cl)CC2)CC1 (stereo not shown) [compound 76]	> 0.1 µM
O=C(NCc1cc(Cl)cc(Cl)c1)c1cnc(N2CCN(C3CCN(Cc4ccc(F)cc4)CC3)CC2)c(Cl)c1 [compound 77]	> 0.1 µM
O=C(NCc1cc(Cl)cc(Cl)c1)c1cnc(N2CCN(C3CCN(Cc4ccc(F)c(F)c4)CC3)CC2)c(Cl)c1 [compound 78]	> 0.1 µM
O=C(NCc1ccc(F)cc1F)c1cnc(N2CCN(C3CCN(Cc4ccc(Br)cc4)CC3)CC2)c(Cl)c1 [compound 79]	> 0.1 µM
O=C(NCc1cc(Cl)cc(Cl)c1)c1cnc(N2CCN(C3CCN(Cc4ccc(Cl)c(F)c4)CC3)CC2)c(Cl)c1 [compound 80]	> 0.1 µM
N#Cc1ccc(C(=O)N2CCC(N3CCN(c4ncc(C(=O)NCc5ccc(Cl)cc5F)cc4Cl)CC3)CC2)cc1 [compound 81]	> 0.1 µM
O=C(NCCCc1ccccc1)c1cnc(N2CCN(C3CCN(Cc4ccc(Cl)cc4)CC3)CC2)c(Cl)c1 [compound 82]	> 0.1 µM
N#Cc1ccc(C(=O)N2CCC(N3CCN(c4ncc(C(=O)NCc5ccc(F)c(Cl)c5)cc4Cl)CC3)CC2)cc1 [compound 83]	> 0.1 µM
